Experimental data reported in ChEMBL document CHEMBL1201862, “PubChem BioAssay data set” (2004).
Activity calls are given as the source filed them.

How the values were obtained:
CHO = assay: cytotoxicity in TLR9-MyD88 CHO cells, dose response, cytotoxicity control for TLR9-MyD88 binding inhibitor project, cell-based, luminescence (AID 588339); type: functional, hamster; settings: Cricetulus griseus;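 note: CHO cells stably coexpressing TLR9 and MyD88 fusions from primary screen; compound exposure lasted 48 hours before viability readout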
[1] = molecular target: T1, Heat shock factor protein 1 (Mus musculus, UniProt P38532); assay: HSF1 potentiators in luciferase reporter cells, confirmation, cell-based, NIH3T3, luminescence, dose retest (AID 435004); type: functional;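 note: stress induced by proteasome inhibitor MG132 added 30 min after compound; luciferase reporter driven by HSF1 response element in NIH3T3 cells; actives raise luminescence as potentiators of the MG132 stress response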
T1 sequence (P38532 whole entry): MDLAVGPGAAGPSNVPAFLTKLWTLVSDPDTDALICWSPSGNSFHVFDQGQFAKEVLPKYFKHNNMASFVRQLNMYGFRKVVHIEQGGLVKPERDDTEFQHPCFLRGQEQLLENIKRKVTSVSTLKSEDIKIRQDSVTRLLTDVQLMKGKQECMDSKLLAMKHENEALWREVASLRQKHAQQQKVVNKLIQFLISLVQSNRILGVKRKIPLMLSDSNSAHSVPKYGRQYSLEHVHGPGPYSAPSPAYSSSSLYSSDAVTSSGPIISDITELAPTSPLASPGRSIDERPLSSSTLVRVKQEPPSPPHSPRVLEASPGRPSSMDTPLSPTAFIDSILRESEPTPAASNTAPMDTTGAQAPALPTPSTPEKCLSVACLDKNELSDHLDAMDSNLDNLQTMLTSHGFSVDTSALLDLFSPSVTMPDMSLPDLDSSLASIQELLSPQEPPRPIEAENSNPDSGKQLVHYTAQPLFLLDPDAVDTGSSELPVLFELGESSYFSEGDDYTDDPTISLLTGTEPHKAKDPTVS

[2] = reduction of endogenous Shn3 mRNA, dose response, qPCR, Clone20 cells, cherry-pick (AID 743415); type: functional, cell-based
[3] = molecular target: Bifunctional protein GlmU (Mycobacterium tuberculosis, UniProt P9WMN3); assay: Inhibitors of Mycobacterial Glucosamine-1-phosphate acetyl transferase (GlmU). Secondary screen.; design: species or system Mycobacterium tuberculosis H37Rv
Chain of Bifunctional protein GlmU (P9WMN3 whole entry): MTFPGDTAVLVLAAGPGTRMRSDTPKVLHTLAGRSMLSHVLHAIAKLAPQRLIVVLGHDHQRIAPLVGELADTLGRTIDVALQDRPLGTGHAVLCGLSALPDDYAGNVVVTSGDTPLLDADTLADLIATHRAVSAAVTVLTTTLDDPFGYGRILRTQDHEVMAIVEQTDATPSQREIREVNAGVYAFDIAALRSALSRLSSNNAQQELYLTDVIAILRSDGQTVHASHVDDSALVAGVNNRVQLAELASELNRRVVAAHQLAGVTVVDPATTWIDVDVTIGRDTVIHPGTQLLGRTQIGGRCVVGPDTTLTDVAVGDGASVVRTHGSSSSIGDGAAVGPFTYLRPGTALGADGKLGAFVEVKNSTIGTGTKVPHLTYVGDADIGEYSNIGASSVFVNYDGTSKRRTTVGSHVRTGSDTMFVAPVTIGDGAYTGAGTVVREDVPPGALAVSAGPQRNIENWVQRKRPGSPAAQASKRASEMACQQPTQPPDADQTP

[4] = reduction of Shn3 3'UTR firefly luciferase signal, dose response, Schnurri-3 inhibitor project, cell-based, Clone20 osteoblasts, cherry-pick, set 2 (AID 720490); type: functional;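 note: actives lower the luminescence signal as inhibitors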
[5] = inhibitors of intracellular T. cruzi replication, confirmation, NIH3T3 host cells, beta-gal luminescence (AID 2044); type: functional, cell-based;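 note: intracellular parasites grown in NIH/3T3 mouse fibroblasts as host cells; luminescent beta-galactosidase reporter signal from transgenic T. cruzi replicating inside host cells; inhibitors lower the luminescence signal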
[6] = control 3'UTR Renilla luciferase suppression, dose response, counter-screen for Shn3 inhibitor project, cell-based, Clone20-Shn3RL, cherry-picked (AID 624133); type: functional
[7] = cytotoxicity toward NIH3T3 fibroblasts, dose response, counter-screen, cell-based, ATP luminescence, mouse fibroblasts (AID 2010); type: functional;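 note: cells exposed to compound for about 90 hours before reading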
Large T antigen = Large T antigen (Simian virus 40, UniProt P03070); type: functional, Betapolyomavirus macacae;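 note: Confirmatory-stage PubChem screen for compounds that inhibit SV40 T antigen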
[8] = Shn3 3'UTR reporter inhibitors, dose response, cell-based, Clone20 osteoblasts, firefly luciferase, cherry-picked (AID 624132); type: functional;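 note: firefly luciferase luminescence from reporter carrying the Shn3 3'UTR in osteoblasts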
Beta Lactamase = Beta Lactamase (Pseudomonas aeruginosa, UniProt Q932Y6); assay: beta-lactamase reporter inhibitor potency, dose response, artefact control for TLR9-MyD88 binding inhibitor project, BLA reporter cells, FRET fluorescence (AID 588341); type: cell-based;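 note: cell based assay in CHO-K1 cells stably expressing beta-lactamase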
Chain of Beta Lactamase (Q932Y6 whole entry): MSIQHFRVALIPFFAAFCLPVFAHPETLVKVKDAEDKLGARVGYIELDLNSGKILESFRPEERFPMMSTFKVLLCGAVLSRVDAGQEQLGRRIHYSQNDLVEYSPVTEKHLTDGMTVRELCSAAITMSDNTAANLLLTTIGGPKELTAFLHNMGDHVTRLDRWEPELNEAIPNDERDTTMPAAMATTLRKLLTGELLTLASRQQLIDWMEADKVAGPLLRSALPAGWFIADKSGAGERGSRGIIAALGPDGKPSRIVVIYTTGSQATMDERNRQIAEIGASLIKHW

[9] = inhibitors of control Renilla luciferase reporter, dose response, counter-screen for Shn3 3'UTR targeting project, Clone20-Shn3RL cells, dual-Glo, cherry-pick, set 2 (AID 720724); type: functional, cell-based; settings: Dual-Go Shn3RL
[10] = HepG2 cell cytotoxicity, dose response, cytotoxicity control for Shn3 inhibitor project, CellTiter-Glo, cherry-picked (AID 624134); type: functional, cell-based
[11] = EDANS-DABCYL fluorescence interference, concentration series, dose response, artefact control for kallikrein-7 zymogen activator project, biochemical, fluorescence intensity, triplicate (AID 720493)
Kallikrein-7 = Kallikrein-7 (Homo sapiens, UniProt P49862); assay: Fluorescence Intensity-based biochemical primary high throughput dose response assay to identify activators of kallikrein-7 (K7) zymogen.
Chain of Kallikrein-7 (P49862 whole entry): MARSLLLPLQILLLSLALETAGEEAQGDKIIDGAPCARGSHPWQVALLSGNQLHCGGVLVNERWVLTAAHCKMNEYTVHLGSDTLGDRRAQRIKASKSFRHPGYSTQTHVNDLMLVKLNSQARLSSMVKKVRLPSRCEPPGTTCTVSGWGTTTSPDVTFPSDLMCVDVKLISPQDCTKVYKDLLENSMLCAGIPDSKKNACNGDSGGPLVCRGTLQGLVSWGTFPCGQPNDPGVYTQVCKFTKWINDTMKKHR

[12] = molecular target: T2, Calpain-2 catalytic subunit (Sus scrofa, UniProt P43367); assay: pig calpain II inhibitor potency, dose response, biochemical, fluorogenic peptide substrate (AID 1420); type: functional
T2 sequence (P43367 whole entry): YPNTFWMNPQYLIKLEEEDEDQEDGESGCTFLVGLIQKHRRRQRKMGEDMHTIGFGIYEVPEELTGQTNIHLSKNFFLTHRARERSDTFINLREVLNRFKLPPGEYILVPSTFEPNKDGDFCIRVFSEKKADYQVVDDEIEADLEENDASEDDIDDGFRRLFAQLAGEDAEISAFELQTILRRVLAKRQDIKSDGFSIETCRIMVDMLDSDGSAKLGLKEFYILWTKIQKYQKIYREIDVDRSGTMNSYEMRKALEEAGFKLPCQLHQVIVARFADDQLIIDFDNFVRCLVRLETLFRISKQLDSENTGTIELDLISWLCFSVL

[13] = molecular target: Disintegrin and metalloproteinase domain-containing protein 17 (Homo sapiens, UniProt P78536); assay: ADAM17 protease inhibitors, dose response, counter-screen for ADAM10 exosite inhibitor project, biochemical, quenched FRET substrate (AID 743253)
Chain of Disintegrin and metalloproteinase domain-containing protein 17 (P78536 whole entry, the tested form may be a part): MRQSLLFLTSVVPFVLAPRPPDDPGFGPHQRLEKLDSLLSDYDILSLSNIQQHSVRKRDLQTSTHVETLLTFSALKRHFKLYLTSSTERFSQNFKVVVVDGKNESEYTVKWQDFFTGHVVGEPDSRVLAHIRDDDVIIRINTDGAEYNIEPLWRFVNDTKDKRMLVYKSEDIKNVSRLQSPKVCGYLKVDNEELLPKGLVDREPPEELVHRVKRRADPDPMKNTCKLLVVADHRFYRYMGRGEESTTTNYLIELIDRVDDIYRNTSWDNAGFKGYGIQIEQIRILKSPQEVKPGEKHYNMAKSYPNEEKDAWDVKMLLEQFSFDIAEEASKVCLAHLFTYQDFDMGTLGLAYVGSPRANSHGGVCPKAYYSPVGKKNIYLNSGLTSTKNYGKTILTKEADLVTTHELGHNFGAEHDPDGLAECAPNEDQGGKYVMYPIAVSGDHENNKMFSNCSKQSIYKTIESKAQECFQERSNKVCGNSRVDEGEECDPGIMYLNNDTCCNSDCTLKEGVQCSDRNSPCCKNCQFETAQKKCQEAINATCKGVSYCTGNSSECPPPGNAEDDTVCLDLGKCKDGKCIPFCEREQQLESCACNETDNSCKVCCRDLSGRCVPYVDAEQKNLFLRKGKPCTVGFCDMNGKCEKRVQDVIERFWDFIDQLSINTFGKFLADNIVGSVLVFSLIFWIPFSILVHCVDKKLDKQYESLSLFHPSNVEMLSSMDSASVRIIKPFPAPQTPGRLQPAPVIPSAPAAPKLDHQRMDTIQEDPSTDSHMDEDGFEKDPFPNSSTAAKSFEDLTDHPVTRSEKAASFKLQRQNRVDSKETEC

[14] = ADAM10 inhibitors, peptide cleavage, dose response, biochemical, QFRET (AID 743254);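 note: ADAM10 enzyme with the DM2 quenched FRET peptide as substrate; EDANS fluorescence gain as the protease cuts the substrate; inhibitor potency against ADAM10 proteolytic activity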
CAAX prenyl protease 2 [15] = molecular target: T3, CAAX prenyl protease 2 (Saccharomyces cerevisiae S288c, UniProt Q03530); type: biochemical
T3 sequence (Q03530 whole entry): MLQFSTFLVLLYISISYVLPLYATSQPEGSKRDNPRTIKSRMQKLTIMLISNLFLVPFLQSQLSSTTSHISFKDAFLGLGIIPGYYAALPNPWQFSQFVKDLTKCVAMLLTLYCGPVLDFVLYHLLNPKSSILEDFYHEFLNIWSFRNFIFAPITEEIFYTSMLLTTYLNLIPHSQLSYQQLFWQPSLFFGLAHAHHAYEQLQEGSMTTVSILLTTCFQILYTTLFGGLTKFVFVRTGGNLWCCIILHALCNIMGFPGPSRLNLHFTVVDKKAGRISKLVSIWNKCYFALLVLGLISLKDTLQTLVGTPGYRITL

cells [16] = assay: cells
[17] = HepG2 cell cytotoxicity, dose response, cytotoxicity control, ATP luminescence, cherry-pick, set 6 (AID 1053125); type: functional, cell-based
cells [18] = settings: HEK293;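 note: cells exposed to compound for 48 hours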
CAAX prenyl protease 2 [19] = molecular target: T4, CAAX prenyl protease 2 (Homo sapiens, UniProt Q9Y256); assay: human Rce1 protease inhibitors, dose response, biochemical, yeast membranes, quenched-peptide fluorescence, cherry-pick (AID 588849)
T4 sequence (Q9Y256 whole entry): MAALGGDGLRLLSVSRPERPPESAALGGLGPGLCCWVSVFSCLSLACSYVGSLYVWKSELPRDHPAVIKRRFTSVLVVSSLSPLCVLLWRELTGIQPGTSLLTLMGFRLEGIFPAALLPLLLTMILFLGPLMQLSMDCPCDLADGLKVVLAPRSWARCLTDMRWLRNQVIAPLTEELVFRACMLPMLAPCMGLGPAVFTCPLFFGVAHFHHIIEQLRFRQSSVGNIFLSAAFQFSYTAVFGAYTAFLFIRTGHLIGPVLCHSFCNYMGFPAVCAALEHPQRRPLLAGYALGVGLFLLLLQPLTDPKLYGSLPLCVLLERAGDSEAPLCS

Trypsin = Trypsin (Sus scrofa, UniProt P00761); assay: porcine trypsin inhibitors, dose response, selectivity assay for Rce1 protease inhibitor project, biochemical, quenched peptide fluorescence, cherry-pick (AID 488789)
Chain of Trypsin (P00761 whole entry): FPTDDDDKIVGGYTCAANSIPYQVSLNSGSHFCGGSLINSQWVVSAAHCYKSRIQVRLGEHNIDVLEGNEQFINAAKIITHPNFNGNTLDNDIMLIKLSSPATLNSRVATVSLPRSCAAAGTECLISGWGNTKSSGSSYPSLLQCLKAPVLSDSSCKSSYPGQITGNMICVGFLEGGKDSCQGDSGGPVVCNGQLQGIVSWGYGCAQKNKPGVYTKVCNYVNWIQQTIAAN

[20] = HEp-2 cell cytotoxicity, dose response, cytotoxicity control for RSV inhibitor project, HTS (AID 2410); type: functional; settings: human respiratory syncytial virus
cells [21] = settings: A549
[22] = HEK293 Cytotoxicity Assay Measured in Cell-Based System Using Plate Reader - 7071-01_Inhibitor_Dose_CherryPick_Activity_Set2.; type: functional
HEK293 = assay: HEK293T cell cytotoxicity, dose response, cytotoxicity control, ATP luminescence, cherry-pick samples (AID 687005); type: functional, cell-based; settings: Homo sapiens;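 note: cells exposed to compound for 48 hours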
HeLa = assay: HeLa cell cytotoxicity, dose response, cytotoxicity control, ATP luminescence, cherry-pick samples (AID 687004); type: functional, cell-based; settings: Homo sapiens
[23] = A Cell-Based Confirmatory Screen for Compounds that Inhibit VEEV, TC-83 (7).; type: functional
[24] = inhibitors of PGC1a acetylation in cells, dose response, cell-based, cherry-picked samples (AID 720514); type: functional;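 note: potency may reflect raised or lowered acetylation signal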
[25] = T. cruzi intracellular amastigote growth inhibition, dose response, imaging, CA-I/72 strain, bovine embryo skeletal muscle, dry powder (AID 651885); type: functional, cell-based
[26] = molecular target: Metabotropic glutamate receptor 5 (Rattus norvegicus, UniProt P31424); assay: Identification of a glycine sulfonamide based non-MPEP site positive allosteric potentiator (PAM) of mGlu5 (calcium_assay).; type: functional
Chain of Metabotropic glutamate receptor 5 (P31424 whole entry): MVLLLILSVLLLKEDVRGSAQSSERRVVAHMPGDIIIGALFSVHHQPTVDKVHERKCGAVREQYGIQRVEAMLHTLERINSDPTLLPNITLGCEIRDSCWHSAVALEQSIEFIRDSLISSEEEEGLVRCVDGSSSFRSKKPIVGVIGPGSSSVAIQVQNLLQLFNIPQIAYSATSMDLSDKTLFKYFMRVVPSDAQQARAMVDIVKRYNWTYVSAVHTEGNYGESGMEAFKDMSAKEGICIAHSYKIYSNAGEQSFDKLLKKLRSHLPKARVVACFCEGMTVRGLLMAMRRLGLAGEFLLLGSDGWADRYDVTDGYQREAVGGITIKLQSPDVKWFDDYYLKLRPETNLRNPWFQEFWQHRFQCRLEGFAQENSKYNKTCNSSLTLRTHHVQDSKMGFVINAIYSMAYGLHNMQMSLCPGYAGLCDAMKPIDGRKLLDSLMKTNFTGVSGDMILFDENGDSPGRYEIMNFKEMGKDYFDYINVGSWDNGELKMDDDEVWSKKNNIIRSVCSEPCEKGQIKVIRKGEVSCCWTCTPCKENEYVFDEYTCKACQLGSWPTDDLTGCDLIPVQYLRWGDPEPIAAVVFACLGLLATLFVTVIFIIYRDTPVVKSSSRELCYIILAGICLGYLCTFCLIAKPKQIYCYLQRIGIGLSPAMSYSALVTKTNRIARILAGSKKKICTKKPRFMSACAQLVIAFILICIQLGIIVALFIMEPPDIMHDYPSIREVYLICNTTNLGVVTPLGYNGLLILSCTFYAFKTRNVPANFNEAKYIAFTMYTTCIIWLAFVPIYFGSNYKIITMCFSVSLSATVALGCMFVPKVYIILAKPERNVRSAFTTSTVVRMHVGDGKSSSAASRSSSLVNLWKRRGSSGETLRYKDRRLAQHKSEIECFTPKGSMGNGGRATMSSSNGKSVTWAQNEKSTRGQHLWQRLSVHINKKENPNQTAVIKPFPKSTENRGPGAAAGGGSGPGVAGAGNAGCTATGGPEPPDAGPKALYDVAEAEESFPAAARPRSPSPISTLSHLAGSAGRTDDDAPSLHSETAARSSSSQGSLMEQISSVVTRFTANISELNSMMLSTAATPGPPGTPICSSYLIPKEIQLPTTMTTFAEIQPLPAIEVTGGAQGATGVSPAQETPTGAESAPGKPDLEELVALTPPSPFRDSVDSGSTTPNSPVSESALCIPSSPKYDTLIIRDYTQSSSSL

[27] = YAP1 pathway inhibition via CTGF transcript levels, dose response, cell-based, DLD1 colon cancer, RT-qPCR, cherry-pick (AID 1053122); type: functional; settings: Cancer cell lines
[28] = molecular target: Delta-type opioid receptor (Homo sapiens, UniProt P41143); assay: Late-stage results from the probe development effort to identify antagonists of OPRK1: fluorescence-based cell-based dose response OPRD1 counterscreen.; type: functional
Chain of Delta-type opioid receptor (P41143 whole entry): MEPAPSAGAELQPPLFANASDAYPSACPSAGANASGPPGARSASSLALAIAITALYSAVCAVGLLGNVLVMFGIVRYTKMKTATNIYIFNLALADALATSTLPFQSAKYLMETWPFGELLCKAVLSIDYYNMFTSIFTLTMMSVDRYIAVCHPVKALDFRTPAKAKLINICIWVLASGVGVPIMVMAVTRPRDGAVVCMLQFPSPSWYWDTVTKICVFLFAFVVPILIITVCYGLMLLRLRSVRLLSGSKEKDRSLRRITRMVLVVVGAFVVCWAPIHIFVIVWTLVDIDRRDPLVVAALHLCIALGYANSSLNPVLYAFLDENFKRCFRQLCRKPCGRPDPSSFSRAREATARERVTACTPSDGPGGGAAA

Mu-type opioid receptor = Mu-type opioid receptor (Homo sapiens, UniProt P35372); assay: Late-stage results from the probe development effort to identify antagonists of OPRK1: luminescence-based cell-based dose response OPRM1 counterscreen.; type: functional
Chain of Mu-type opioid receptor (P35372 whole entry): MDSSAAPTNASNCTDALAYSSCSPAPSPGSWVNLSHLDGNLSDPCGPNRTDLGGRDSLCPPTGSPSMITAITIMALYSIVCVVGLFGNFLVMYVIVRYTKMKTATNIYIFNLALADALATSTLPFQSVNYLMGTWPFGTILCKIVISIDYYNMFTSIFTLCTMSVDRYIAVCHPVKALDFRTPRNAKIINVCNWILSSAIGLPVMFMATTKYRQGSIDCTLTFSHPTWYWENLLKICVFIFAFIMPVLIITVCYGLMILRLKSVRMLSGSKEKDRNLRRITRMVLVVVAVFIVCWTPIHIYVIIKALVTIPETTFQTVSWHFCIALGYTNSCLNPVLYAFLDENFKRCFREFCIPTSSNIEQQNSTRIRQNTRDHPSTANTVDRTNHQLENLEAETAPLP

[29] = HepG2 cell cytotoxicity, dose response, cytotoxicity control, luminescence, dry powder, set 5 (AID 743185); type: functional, cell-based
[30] = NIH/3T3 fibroblast cytotoxicity, dose response, cytotoxicity control, cell-based, plate reader, dry powder, set 2 (AID 652280); type: functional; settings: NIH3T3
[31] = inhibitors of non-replicating M. tuberculosis, dose response, luciferase, dry powder (AID 651620); type: functional; settings: Mycobacterium tuberculosis
[32] = inhibitors of non-replicating M. tuberculosis, dose response, luciferase, dry powder (AID 651619); type: functional; settings: Mycobacterium tuberculosis
[33] = IRAP inhibitors, dose response, selectivity assay for ERAP1 modulator project, biochemical, Leu-AMC fluorescence, cherry-picked samples, set 2 (AID 743340)
[34] = molecular target: Protein disulfide-isomerase (Homo sapiens, UniProt P07237); assay: PDI inhibitors, insulin turbidity readout, confirmation, biochemical, dry powder samples, set 2 (AID 652146)
Chain of Protein disulfide-isomerase (P07237 whole entry): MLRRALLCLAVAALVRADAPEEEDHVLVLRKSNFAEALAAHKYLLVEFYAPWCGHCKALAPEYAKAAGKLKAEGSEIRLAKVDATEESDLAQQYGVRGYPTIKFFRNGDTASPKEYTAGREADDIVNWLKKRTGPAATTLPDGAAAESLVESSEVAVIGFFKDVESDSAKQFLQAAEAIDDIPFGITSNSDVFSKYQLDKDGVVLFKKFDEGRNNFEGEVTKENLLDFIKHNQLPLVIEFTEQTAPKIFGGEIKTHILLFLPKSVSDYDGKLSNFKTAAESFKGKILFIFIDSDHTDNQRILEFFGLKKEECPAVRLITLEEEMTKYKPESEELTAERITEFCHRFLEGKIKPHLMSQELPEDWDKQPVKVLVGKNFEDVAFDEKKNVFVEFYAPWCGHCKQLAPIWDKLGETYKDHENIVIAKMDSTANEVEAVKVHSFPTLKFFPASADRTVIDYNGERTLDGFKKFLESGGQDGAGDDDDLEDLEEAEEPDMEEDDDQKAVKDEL

[35] = HEK293 cell cytotoxicity, dose response, cytotoxicity control, HEK293T, ATP luminescence, dry powder (AID 652119); type: functional, cell-based

O=C(c1nnsc1[S+]([O-])c1ccc(Cl)cc1)N1CCOCC1 (configuration not stated)
IC50 (CHO): 2.21 µM (active)
EC50 [1]: 9.23 µM (active)
AC50 [2]: 13.4 µM (active)
IC50 [3]: 181 µM (active)
AC50 [4]: 2.43 µM (active)
EC50 [5]: 1.85 µM (active)
AC50 [6]: 7.35 µM (active)
EC50 [7]: 2.13 µM (active)
IC50 (Large T antigen): 31.6 µM (active)
AC50 [8]: 0.93 µM (active)
IC50 (Beta Lactamase): 30.8 µM (inactive)
AC50 [9]: 3.79 µM (active)
AC50 [10]: 27.3 µM (active)

COc1ccc2c(c1)C(=O)CC(O)(C(F)F)O2 (configuration not stated)
EC50 [11]: > 7.73 µM (active)
EC50 (Kallikrein-7): 16.5 µM (inactive)
IC50 [12]: 8.34 µM (not active)

O=S(=O)(c1ccc(NC(=S)NCCC(c2ccccc2)c2ccccc2)cc1)N1CCOCC1
EC50 [5]: 1.86 µM (active)
EC50 [7]: > 30 µM (not active)
IC50 [13]: > 69.5 µM (inactive)
IC50 [14]: 13.2 µM (inactive)

COC(=O)C1=CN(CC2CCCO2)C=C(C(=O)OC)C1c1cccc(O)c1 (configuration not stated)
AC50 (CAAX prenyl protease 2 [15]): 10.6 µM (active)
AC50 (cells [16]): 11.1 µM (active)
AC50 [17]: > 52 µM (inactive)
AC50 (cells [18]): > 52 µM (inactive)
AC50 (CAAX prenyl protease 2 [19]): 2.08 µM (active)
AC50 (Trypsin): 9.88 µM (active)

CCN1CCc2c(sc(NC(=O)Nc3ccc(Cl)c(Cl)c3)c2C(N)=O)C1
CC50 [20]: 10.4 µM (active)
AC50 [17]: 15.4 µM (active)
AC50 (cells [21]): 15.3 µM (active)
AC50 (cells [18]): 15.2 µM (active)

C[C@@H](NC(=O)C[C@@H]1CC[C@@H]2[C@H](COC[C@H](O)CN2Cc2cc(F)ccc2F)O1)c1ccccc1
AC50 [22]: 5.05 µM (active)
AC50 (HEK293): 5.05 µM (active)
AC50 (HeLa): > 52 µM (inactive)

O=c1c2cc(F)c(F)cc2nc(CN2CCNCC2)n1-c1ccccc1
IC50 [23]: 22.4 µM (active)

COC(=O)[C@@]1(Cc2ccccc2CN=[N+]=[N-])N=C(c2ccc(OCCCO)cc2)O[C@H]1c1ccccc1
AC50 [24]: 17.4 µM (active)

C[C@@H]1CN([C@@H](C)CO)C(=O)c2cccc(NC(=O)c3ccncc3)c2O[C@H]1CN(C)Cc1ccc(C(=O)O)cc1
IC50 [25]: 14.1 µM (inactive)

CC(C(=O)Nc1ccccn1)N(c1ccccc1Cl)S(C)(=O)=O (configuration not stated)
EC50 [26]: 10 µM (inconclusive)

O=C(c1cccc(F)c1)N1CCCCN2[C@H](CO)[C@H](c3ccc(C#CC4(O)CCCC4)cc3)[C@@H]2C1
AC50 [27]: 2.86 µM (active)

COC(=O)c1cc(Br)cnc1N1CCC(NC2CCCCC2)CC1
IC50 [28]: 19 µM (inactive)
IC50 (Mu-type opioid receptor): 1 µM (active)

O=C(N/N=C/c1c[nH]c2ccccc12)c1cccc(O)c1
AC50 [29]: > 52 µM (inactive)

Cc1cccc(-c2ccc([C@H]3[C@H](CO)N4CCCCN(CCC(F)(F)F)C[C@@H]34)cc2)c1
AC50 [30]: 3.67 µM (active)

CCSc1nnc(-c2ccccc2)o1
IC90 [31]: 31 µM (active)
IC90 [32]: 31 µM (active)

C[C@H]1CN([C@@H](C)CO)C(=O)c2cccc(NC(=O)Nc3ccc(C(F)(F)F)cc3)c2O[C@@H]1CN(C)CC1CC1
AC50 [33]: 16 µM (active)

C=CCOc1ccc(CN2CCC(CCOc3ccccc3)(C(=O)NCC)CC2)cc1Cl
AC50 [34]: > 30 µM (inactive)
AC50 [35]: > 52 µM (inactive)
